# Data published in US10413505B1, “Pharmaceutical compositions and methods of using the same” (priority 2017, dated 2019).
# Structures can show the parent of a compound that is named as a salt. Where two headings read alike, the source gives them in different places.
# Experiments:
# [1] = system: subjects undergoing diagnostic procedures and surgeries on or through the mucous membranes of the nasal cavities
# Source text: Example 8 was a randomized, prospective, double-blind, multicenter, single-dose, placebo and dose-controlled, parallel-group study to evaluate the safety of the 4% and 8% cocaine hydrochloride pharmaceutical compositions as described in Example 4 used as a local anesthetic for diagnostic procedures and surgeries on or through the mucous membranes of the nasal cavities (e.g., nasal/sinus endoscopy, sinusotomy, fracture nasal turbinate(s), lysis intranasal synechia, insertion of nasal septal prosthesis, intranasal biopsy, excision of nasal polyps, excision turbinate(s), removal of an intranasal foreign body, septoplasty, or sinus debridement). […] The study consisted of a screening period within 14 days of a diagnostic procedure or surgery; a treatment period on the day of the diagnostic procedure or surgery (Day 1); and a follow-up visit (Day 8).
# Two saturated pledgets were placed into each nasal cavity and up against the septum for 20 minutes. After 20 minutes the pledgets were removed from the subjects.
# To address the potential for the impact of body weight on efficacy and safety, the study conducted the following additional analyses: • Analysis of efficacy (primary endpoint) for 2 subgroups of low weight subjects: <50 kg and <60 kg (see Table 53) • Analysis of safety (AEs) for 2 subgroups of low weight subjects: <50 kg and <60 kg (see Table 54) • Analysis of safety (AEs) for 2 subgroups of subjects based on dose determined on a mg/kg basis (regardless of 4% or 8% dose): ≤3 mg/kg or >3 mg/kg) (Table 55) Note: There is overlap between the body weight groups examined because the <60 kg group has no lower limit of weight.
# [2] = system: Sprague Dawley rats; test: Example 10 cocaethylene HCl intranasal toxicity, Repeat-Dose Phase; assay type: in vivo, rat
# Experimental: Cocaethylene hydrochloride in the vehicle was administered by intranasal instillation once daily for 14 days to a group (Group 2) of Sprague Dawley rats at a dosage level of 2.1 mg/kg/day. […] The dose volume was 0.22 mL/kg, divided between the 2 nares, for both groups. Groups 1 and 2 each consisted of 15 animals/sex. Following 14 days of dose administration, 10 animals/sex/group were euthanized; the remaining […] animals/sex/group were euthanized following a 14-day nondosing (recovery) period. Criteria for evaluation included daily mortality observations, daily clinical observations, detailed physical observations, body weights, food consumption, clinical pathology (hematology, coagulation, serum chemistry, and urinalysis), organ weights, gross pathology, and microscopic examination of select tissues.
# (§1) The vehicle and test article formulations were administered by intranasal instillation into each naris via a syringe equipped with stainless steel-shafted, stainless steel ball-tipped dosing cannula once (Single-Dose Phase) or once daily for 14 consecutive days (Repeat-Dose Phase), through the day prior to the primary necropsy. The same syringe and dosing cannula was used to administer the dose across both nares for a given animal on a given dosing day. The total dose volume administered per dose was split approximately equally across each naris, such that approximately half of the total dose volume was administered into one naris, and the remaining was administered into the other naris. Treatment administration across each naris for an individual animal occurred at approximately the same time. The dose volume for all groups was 0.22 mL/kg. Individual doses were based on the most recently recorded body weights. Adjusted doses became effective the day of collection of the weekly body weights. The first day of dosing was Study Day 0; the first week of dosing was Study Week 0.
# (§2) All animals were observed twice daily, once in the morning and once in the afternoon, for mortality and moribundity.
# (§3) Clinical examinations were performed at the time of dose administration and 1 to 2 hours following dose administration. During the recovery period, the animals were observed once daily. The absence or presence of findings was recorded for individual animals at the scheduled intervals. For the Single-Dose Phase, detailed physical examinations were conducted on all animals within 4 days of receipt, on the day of randomization, and on Study Days 0, 1, 7, and 14. For the Repeat-Dose Phase, detailed physical examinations were conducted on all animals within 4 days of receipt, on the day of randomization, weekly (±2 days) during the study period, and on the day of the scheduled necropsies. Daily observations during the recovery period were not necessary on days when detailed physical examinations were conducted.
# (§4) Individual body weights were recorded within 4 days of receipt, on the day of randomization, Study Day 0 (prior to dosing), weekly (±2 days) during the study period, and on the day prior to the scheduled necropsies (nonfasted). Mean body weights and mean body weight changes were calculated for the corresponding intervals. Final body weights (fasted) were recorded on the day of the scheduled necropsies.
# (§5) Cage food weights were recorded once weekly (±2 days) beginning following randomization and throughout the study period. Food consumption was calculated as g/animal/day for the corresponding body weight intervals.
# (§6) Blood and urine samples for clinical pathology evaluations (hematology, coagulation, serum chemistry, and urinalysis) were collected from all animals assigned to the scheduled necropsies. The animals were fasted overnight prior to blood collection while in metabolism cages for urine collection. Blood was collected from a jugular vein and from the vena cava at the time of necropsy. Blood was collected into tubes containing potassium K2EDTA (hematology), sodium citrate (coagulation), or no anticoagulant (serum chemistry). […]
# [3] = system: Sprague Dawley rats; test: Example 10 cocaethylene HCl intranasal toxicity, Single-Dose Phase; assay type: in vivo, rat
# Experimental: Cocaethylene HCl in the vehicle (deionized water) was administered by intranasal instillation once to a group (Group 2) of Sprague Dawley rats at a dose level of 2.1 mg/kg. […] The dose volume was 0.22 mL/kg, divided between the 2 nares, for both groups. Groups 1 and 2 each consisted of 20 animals/sex. Following dose administration, 10 animals/sex/group were euthanized on Study Day 1; the remaining 10 animals/sex/group were euthanized following a 14-day non-dosing (recovery) period. Criteria for evaluation included daily mortality observations, daily clinical observations, detailed physical observations, body weights, food consumption, clinical pathology (hematology, coagulation, serum chemistry, and urinalysis), organ weights, gross pathology, and microscopic examination of select tissues.
# as §1, §2, §3, §4, §5, §6
# [4] = 2.1 mg/kg/day for 14 days, intranasal instillation
# [5] = 2.1 mg/kg once, intranasal instillation
smiles,measurement,setting,value
COC(=O)[C@H]1[C@@H](OC(=O)c2ccccc2)C[C@@H]2CC[C@H]1N2C [Cocaine HCl],Adverse events: Anxiety,[1]; >3% mg/kg,2 (0.8) n (%)
same,Adverse events: Dermatitis allergic,[1]; >3% mg/kg,1 (0.4) n (%)
same,Adverse events: Dizziness,[1]; >3% mg/kg,1 (0.4) n (%)
same,Adverse events: Dysphonia,[1]; >3% mg/kg,0 n (%)
same,Adverse events: Epistaxis,[1]; >3% mg/kg,2 (0.8) n (%)
same,Adverse events: Eye disorders,[1]; >3% mg/kg,1 (0.4) n (%)
same,Adverse events: Facial pain,[1]; >3% mg/kg,1 (0.4) n (%)
same,Adverse events: Fatigue,[1]; >3% mg/kg,0 n (%)
same,Adverse events: Foreign body sensation in eyes,[1]; >3% mg/kg,1 (0.4) n (%)
same,Adverse events: Gastrointestinal disorders,[1]; >3% mg/kg,1 (0.4) n (%)
same,Adverse events: General disorders and administration site conditions,[1]; >3% mg/kg,1 (0.4) n (%)
same,Adverse events: Headache,[1]; >3% mg/kg,4 (1.6) n (%)
same,Adverse events: Hypertension,[1]; >3% mg/kg,0 n (%)
same,"Adverse events: Injury, poisoning and procedural complications",[1]; >3% mg/kg,1 (0.4) n (%)
same,Adverse events: Lip swelling,[1]; >3% mg/kg,1 (0.4) n (%)
same,Adverse events: Masculoskeletal and connective tissue disorders,[1]; >3% mg/kg,1 (0.4) n (%)
same,Adverse events: Medication error,[1]; >3% mg/kg,1 (0.4) n (%)
same,Adverse events: Nasal congestion,[1]; >3% mg/kg,1 (0.4) n (%)
same,Adverse events: Nausea,[1]; >3% mg/kg,0 n (%)
same,Adverse events: Neck pain,[1]; >3% mg/kg,1 (0.4) n (%)
same,Adverse events: Nervous system disorders,[1]; >3% mg/kg,5 (2.0) n (%)
same,Adverse events: Psychiatric disorders,[1]; >3% mg/kg,2 (0.8) n (%)
same,"Adverse events: Respiratory, thoracic and mediastinal disorders",[1]; >3% mg/kg,3 (1.2) n (%)
same,Adverse events: Rhinorrhea,[1]; >3% mg/kg,0 n (%)
same,Adverse events: Skin and subcutaneous tissue disorders,[1]; >3% mg/kg,2 (0.8) n (%)
same,Adverse events: Sneezing,[1]; >3% mg/kg,0 n (%)
same,Adverse events: Upper-airway cough syndrome,[1]; >3% mg/kg,0 n (%)
same,Adverse events: Vascular disorders,[1]; >3% mg/kg,0 n (%)
same,Adverse events: Vision blurred,[1]; >3% mg/kg,0 n (%)
same,Any AE,[1]; >3% mg/kg,14 (5.7) n (%)
same,Adverse events: Cold sweat,"[1]; >3% mg/kg, under General disorders and administration site conditions",0 n (%)
same,Adverse events: Cold sweat,"[1]; >3% mg/kg, under Skin and subcutaneous tissue disorders",1 (0.4) n (%)
same,Adverse events: Anxiety,[1]; ≤3 mg/kg,0 n (%)
same,Adverse events: Dermatitis allergic,[1]; ≤3 mg/kg,0 n (%)
same,Adverse events: Dizziness,[1]; ≤3 mg/kg,1 (0.3) n (%)
same,Adverse events: Dysphonia,[1]; ≤3 mg/kg,1 (0.3) n (%)
same,Adverse events: Epistaxis,[1]; ≤3 mg/kg,3 (1.0) n (%)
same,Adverse events: Eye disorders,[1]; ≤3 mg/kg,1 (0.3) n (%)
same,Adverse events: Facial pain,[1]; ≤3 mg/kg,0 n (%)
same,Adverse events: Fatigue,[1]; ≤3 mg/kg,1 (0.3) n (%)
same,Adverse events: Foreign body sensation in eyes,[1]; ≤3 mg/kg,0 n (%)
same,Adverse events: Gastrointestinal disorders,[1]; ≤3 mg/kg,1 (0.3) n (%)
same,Adverse events: General disorders and administration site conditions,[1]; ≤3 mg/kg,2 (0.7) n (%)
same,Adverse events: Headache,[1]; ≤3 mg/kg,7 (2.3) n (%)
same,Adverse events: Hypertension,[1]; ≤3 mg/kg,1 (0.3) n (%)
same,"Adverse events: Injury, poisoning and procedural complications",[1]; ≤3 mg/kg,0 n (%)
same,Adverse events: Lip swelling,[1]; ≤3 mg/kg,0 n (%)
same,Adverse events: Masculoskeletal and connective tissue disorders,[1]; ≤3 mg/kg,0 n (%)
same,Adverse events: Medication error,[1]; ≤3 mg/kg,0 n (%)
same,Adverse events: Nasal congestion,[1]; ≤3 mg/kg,0 n (%)
same,Adverse events: Nausea,[1]; ≤3 mg/kg,1 (0.3) n (%)
same,Adverse events: Neck pain,[1]; ≤3 mg/kg,0 n (%)
same,Adverse events: Nervous system disorders,[1]; ≤3 mg/kg,7 (2.3) n (%)
same,Adverse events: Psychiatric disorders,[1]; ≤3 mg/kg,0 n (%)
same,"Adverse events: Respiratory, thoracic and mediastinal disorders",[1]; ≤3 mg/kg,6 (2.0) n (%)
same,Adverse events: Rhinorrhea,[1]; ≤3 mg/kg,1 (0.3) n (%)
same,Adverse events: Skin and subcutaneous tissue disorders,[1]; ≤3 mg/kg,0 n (%)
same,Adverse events: Sneezing,[1]; ≤3 mg/kg,1 (0.3) n (%)
same,Adverse events: Upper-airway cough syndrome,[1]; ≤3 mg/kg,0 n (%)
same,Adverse events: Vascular disorders,[1]; ≤3 mg/kg,1 (0.3) n (%)
same,Adverse events: Vision blurred,[1]; ≤3 mg/kg,1 (0.3) n (%)
same,Any AE,[1]; ≤3 mg/kg,13 (4.3) n (%)
same,Adverse events: Cold sweat,"[1]; ≤3 mg/kg, under General disorders and administration site conditions",1 (0.3) n (%)
same,Adverse events: Cold sweat,"[1]; ≤3 mg/kg, under Skin and subcutaneous tissue disorders",0 n (%)
"CCOC(=O)[C@@H]1C2CCC(C[C@@H]1OC(=O)c1ccccc1)N2C (stereo partly shown) [cocaethylene HCl, cocaethylene hydrochloride]",tolerability,"[2]; 2.1 mg/kg once or once daily for 14 days, intranasal instillation",well tolerated
same,body weights,[2]; [4],unaffected
same,clinical observations,[2]; [4],no test article-related clinical observations
same,food consumption,[2]; [4],unaffected
same,hematology and coagulation parameters,[2]; [4],unaffected
same,macroscopic examination at necropsy,[2]; [4],no test article-related macroscopic findings
same,organ weights,[2]; [4],unaffected
same,serum chemistry parameters,[2]; [4],unaffected
same,survival,[2]; [4],All animals survived
same,urinalysis parameters,[2]; [4],unaffected
same,microscopic examination (nasal cavity with turbinates),"[2]; 2.1 mg/kg/day for 14 days, intranasal instillation, also after 14-day recovery",No test article-related microscopic findings
same,pH of the dosing formulation,"[2]; Repeat-Dose Phase, 9.6 mg/mL in deionized water, pH meter",2.81
same,no-observed-effect level (NOEL),[2]; intranasal instillation once or once daily for 14 days,2.1 mg/kg/day
same,body weights,[3]; [5],unaffected
same,clinical observations,[3]; [5],no test article-related clinical observations
same,food consumption,[3]; [5],unaffected
same,hematology and coagulation parameters,[3]; [5],unaffected
same,macroscopic examination at necropsy,[3]; [5],no test article-related macroscopic findings
same,organ weights,[3]; [5],unaffected
same,serum chemistry parameters,[3]; [5],unaffected
same,survival,[3]; [5],All animals survived
same,urinalysis parameters,[3]; [5],unaffected
same,microscopic examination (nasal cavity with turbinates),"[3]; 2.1 mg/kg once, intranasal instillation, also after 14-day recovery",No test article-related microscopic findings
same,pH of the dosing formulation,"[3]; Single-Dose Phase, 9.6 mg/mL in deionized water, pH meter",2.81
